# Columns and labels:
# Type in all cases: in vivo
# [1] = system: Alopecurus myosuroides; test: Pre-emergence test, weed control; conditions: 3 weeks after treatment, rating 0-100 (100=death), Table 1
# How it was run: (§1)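 Test compounds in acetone with 0.4% TRITON X-155, diluted with water, were sprayed onto freshly sown horticultural loam at 15, 30, 60, 120 or 240 g a.i./ha in 900 L/ha. Visual assessment three weeks after spraying, on a 0–100 scale (0 = as untreated control, 100 = death).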
# [2] = system: Apera spica-venti; test: Pre-emergence test, weed control; conditions: 3 weeks after treatment, rating 0-100 (100=death), Table 1
# How it was run: as §1
# [3] = system: Galium aparine; test: Pre-emergence test, weed control; conditions: 3 weeks after treatment, rating 0-100 (100=death), Table 1
# How it was run: as §1
# [4] = system: Lamium purpureum; test: Pre-emergence test, weed control; conditions: 3 weeks after treatment, rating 0-100 (100=death), Table 1
# How it was run: as §1
# [5] = system: Lolium perenne; test: Pre-emergence test, weed control; conditions: 3 weeks after treatment, rating 0-100 (100=death), Table 1
# How it was run: as §1
# [6] = system: Matricaria inodora; test: Pre-emergence test, weed control; conditions: 3 weeks after treatment, rating 0-100 (100=death), Table 1
# How it was run: as §1
# [7] = system: Poa annua; test: Pre-emergence test, weed control; conditions: 3 weeks after treatment, rating 0-100 (100=death), Table 1
# How it was run: as §1
# [8] = system: Polygonum convolvulus; test: Pre-emergence test, weed control; conditions: 3 weeks after treatment, rating 0-100 (100=death), Table 1
# How it was run: as §1
# [9] = system: Setaria viridis; test: Pre-emergence test, weed control; conditions: 3 weeks after treatment, rating 0-100 (100=death), Table 1
# How it was run: as §1
# [10] = system: Stellaria media; test: Pre-emergence test, weed control; conditions: 3 weeks after treatment, rating 0-100 (100=death), Table 1
# How it was run: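 Scores from 0 (growth like untreated control) to 100 (death) were assigned by eye three weeks post-spray, with 10 units approximating a 10% change in effect. Treatment was applied to freshly sown loam at 15 to 240 g active material per hectare.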
# [11] = system: Veronica persica; test: Pre-emergence test, weed control; conditions: 3 weeks after treatment, rating 0-100 (100=death), Table 1
# How it was run: as §1
# [12] = system: HORVW; test: Pre-emergence test, selectivity; conditions: 3 weeks after treatment, rating 0-100 (100=death), Table 2
# How it was run: as §1
# [13] = system: Hordeum vulgare variety “Mammut”; test: Pre-emergence test, selectivity; conditions: 3 weeks after treatment, rating 0-100 (100=death), Table 2
# How it was run: as §1
# [14] = system: Triticum aestivum variety “Kanzler”; test: Pre-emergence test, selectivity; conditions: 3 weeks after treatment, rating 0-100 (100=death), Table 2
# How it was run: as §1
# [15] = system: Triticum aestivum variety “Monopol”; test: Pre-emergence test, selectivity; conditions: 3 weeks after treatment, rating 0-100 (100=death), Table 2
# How it was run: as §1
# [16] = system: Galium aparine; test: Post-emergence test, weed control; conditions: 2–4 weeks after treatment, rating 0-100 (100=death), Table 5
# Procedure: (§2) These acetone solutions are diluted with water and the resulting formulations applied at dosage levels equivalent of about 0.030 to 0.240 kg per hectare of test compound per pot. After spraying the plants are placed an greenhouse benches and are cared for in the usual manner, commensurate with conventional greenhouse practices. From 2 to 4 weeks after treatment, the seedling plants are examined and rated according to the rating system provided above. A rating 0 indicates growth as untreated control, a rating 100 indicates death.
# [17] = system: Polygonum convolvulus; test: Post-emergence test, weed control; conditions: 2–4 weeks after treatment, rating 0-100 (100=death), Table 5
# Procedure: as §2
# [18] = system: Setaria viridis; test: Post-emergence test, weed control; conditions: 2–4 weeks after treatment, rating 0-100 (100=death), Table 5
# Procedure: as §2
# [19] = system: VIOAR; test: Post-emergence test, weed control; conditions: 2–4 weeks after treatment, rating 0-100 (100=death), Table 5
# Procedure: as §2
# [20] = system: wheat; test: Post-emergence test, tolerance in wheat; conditions: post-emergence
# Procedure: as §2
compound,measurement,setting,value
"FC(F)(F)c1ccc(-c2nccc(Oc3cccc(C(F)(F)F)c3)n2)cc1 [TTP, 4-(3-trifluoromethylphenoxy)-2-(4-trifluoromethyl-phenyl)-pyrimidine]",ALOMY weed control rating,[1]; 0.015 kg/ha,15
same,ALOMY weed control rating,[1]; 0.030 kg/ha,50
same,ALOMY weed control rating,[1]; 0.060 kg/ha,90
same,ALOMY weed control rating,[1]; 0.120 kg/ha,100
same,ALOMY weed control rating,[1]; 0.240 kg/ha,100
same,APESV weed control rating,[2]; 0.015 kg/ha,100
same,APESV weed control rating,[2]; 0.030 kg/ha,100
same,APESV weed control rating,[2]; 0.060 kg/ha,100
same,APESV weed control rating,[2]; 0.120 kg/ha,100
same,APESV weed control rating,[2]; 0.240 kg/ha,100
same,GALAP weed control rating,[3]; 0.015 kg/ha,5
same,GALAP weed control rating,[3]; 0.030 kg/ha,30
same,GALAP weed control rating,[3]; 0.060 kg/ha,50
same,GALAP weed control rating,[3]; 0.120 kg/ha,75
same,GALAP weed control rating,[3]; 0.240 kg/ha,93
same,LAMPU weed control rating,[4]; 0.015 kg/ha,99
same,LAMPU weed control rating,[4]; 0.030 kg/ha,100
same,LAMPU weed control rating,[4]; 0.060 kg/ha,100
same,LAMPU weed control rating,[4]; 0.120 kg/ha,100
same,LAMPU weed control rating,[4]; 0.240 kg/ha,100
same,LOLPE weed control rating,[5]; 0.015 kg/ha,70
same,LOLPE weed control rating,[5]; 0.030 kg/ha,99
same,LOLPE weed control rating,[5]; 0.060 kg/ha,99
same,LOLPE weed control rating,[5]; 0.120 kg/ha,99
same,LOLPE weed control rating,[5]; 0.240 kg/ha,100
same,MATIN weed control rating,[6]; 0.015 kg/ha,98
same,MATIN weed control rating,[6]; 0.030 kg/ha,99
same,MATIN weed control rating,[6]; 0.060 kg/ha,100
same,MATIN weed control rating,[6]; 0.120 kg/ha,100
same,MATIN weed control rating,[6]; 0.240 kg/ha,100
same,POAAN weed control rating,[7]; 0.015 kg/ha,100
same,POAAN weed control rating,[7]; 0.030 kg/ha,100
same,POAAN weed control rating,[7]; 0.060 kg/ha,100
same,POAAN weed control rating,[7]; 0.120 kg/ha,100
same,POAAN weed control rating,[7]; 0.240 kg/ha,100
same,POLCO weed control rating,[8]; 0.015 kg/ha,80
same,POLCO weed control rating,[8]; 0.030 kg/ha,100
same,POLCO weed control rating,[8]; 0.060 kg/ha,100
same,POLCO weed control rating,[8]; 0.120 kg/ha,100
same,POLCO weed control rating,[8]; 0.240 kg/ha,100
same,SETVI weed control rating,[9]; 0.015 kg/ha,100
same,SETVI weed control rating,[9]; 0.030 kg/ha,100
same,SETVI weed control rating,[9]; 0.060 kg/ha,100
same,SETVI weed control rating,[9]; 0.120 kg/ha,100
same,SETVI weed control rating,[9]; 0.240 kg/ha,100
same,STEME weed control rating,[10]; 0.015 kg/ha,99
same,STEME weed control rating,[10]; 0.030 kg/ha,99
same,STEME weed control rating,[10]; 0.060 kg/ha,100
same,STEME weed control rating,[10]; 0.120 kg/ha,100
same,STEME weed control rating,[10]; 0.240 kg/ha,100
same,VERPE weed control rating,[11]; 0.015 kg/ha,100
same,VERPE weed control rating,[11]; 0.030 kg/ha,100
same,VERPE weed control rating,[11]; 0.060 kg/ha,100
same,VERPE weed control rating,[11]; 0.120 kg/ha,100
same,VERPE weed control rating,[11]; 0.240 kg/ha,100
same,HORVW rating (Selectivity),[12]; 0.015 kg/ha,10
same,HORVW rating (Selectivity),[12]; 0.030 kg/ha,25
same,HORVW rating (Selectivity),[12]; 0.060 kg/ha,30
same,HORVW rating (Selectivity),[12]; 0.120 kg/ha,50
same,HORVW rating (Selectivity),[12]; 0.240 kg/ha,55
same,HORVWM rating (Selectivity),[13]; 0.015 kg/ha,5
same,HORVWM rating (Selectivity),[13]; 0.030 kg/ha,22
same,HORVWM rating (Selectivity),[13]; 0.060 kg/ha,30
same,HORVWM rating (Selectivity),[13]; 0.120 kg/ha,40
same,HORVWM rating (Selectivity),[13]; 0.240 kg/ha,45
same,TRZAWK rating (Selectivity),[14]; 0.120 kg/ha,3
same,TRZAWK rating (Selectivity),[14]; 0.240 kg/ha,10
same,TRZAWM rating (Selectivity),[15]; 0.060 kg/ha,1
same,TRZAWM rating (Selectivity),[15]; 0.120 kg/ha,5
same,TRZAWM rating (Selectivity),[15]; 0.240 kg/ha,15
same,GALAP weed control rating,[16]; 0.030 kg/ha,60
same,GALAP weed control rating,[16]; 0.060 kg/ha,97
same,GALAP weed control rating,[16]; 0.120 kg/ha,80
same,GALAP weed control rating,[16]; 0.240 kg/ha,93
same,POLCO weed control rating,[17]; 0.030 kg/ha,10
same,POLCO weed control rating,[17]; 0.060 kg/ha,60
same,POLCO weed control rating,[17]; 0.120 kg/ha,35
same,POLCO weed control rating,[17]; 0.240 kg/ha,90
same,SETVI weed control rating,[18]; 0.030 kg/ha,93
same,SETVI weed control rating,[18]; 0.060 kg/ha,97
same,SETVI weed control rating,[18]; 0.120 kg/ha,97
same,SETVI weed control rating,[18]; 0.240 kg/ha,100
same,VIOAR weed control rating,[19]; 0.030 kg/ha,90
same,VIOAR weed control rating,[19]; 0.060 kg/ha,92
same,VIOAR weed control rating,[19]; 0.120 kg/ha,92
same,VIOAR weed control rating,[19]; 0.240 kg/ha,95
same,maximum tolerated dose in wheat / dose at which sufficiently selective in wheat,[20],240 g/ha

# — patent US7008905B2, “Method of combating undesired plant growth on cereals” (BASF Aktiengesellschaft, priority 2000, dated 2006)
